# According to US20070093520A1, “Method of treatment of diarrhea-predominant irritable bowel syndrome in a subject” (priority 2005, published 2007):
# Test system: diarrhea-predominant IBS subjects
# Type: in vivo, human
# Conditions: TEAE incidence, 2 mg, Safety Population
# Experimental: The study was performed in approximately 150 study centers. Approximately 1600 eligible subjects were to be given cilansetron 2 mg TID. At Visit 1, pre-treatment assessments were conducted. […] Subjects were to return to the study site one month later for Visit 3 (Day 31) for their first interim assessment. […] All subjects who discontinued from the study were to have the same post-study assessments required at Visit 7 performed at their early termination visit. […]
# Stool specimens were analyzed at every visit for occult blood. An independent GERB had been established to provide advice on GI AEs during the course of the study.
# Adverse events were assessed at Baseline, at each clinic visit, and at the end of the study (Month 12 or the early termination visit). All AEs, which occurred during the study were followed up in accordance with good medical practice until resolved or judged no longer clinically significant, or if a condition was chronic, until fully characterized. Adverse events could occur in the specified follow-up period and, regardless of the interval since the last administration of the study medication, were treated in the same manner as an AE which occurred during the treatment with study medication. Each AE was evaluated for duration, severity, seriousness, and causal relationship to the investigational drug. The action taken and the outcome were also recorded.
# Specifically, subjects who were lost to follow-up and had no post-Baseline contact with the site were excluded from the Safety population. The subjects who discontinued from the study due to lost to follow-up were identified based on the information collected on the study termination CRF page.
# After the pretreatment assessment at Visit 1 (Days […] to −3), subjects were to return to the study site for a Baseline assessment and start the treatment at Visit 2 (Day 1).
# For the by time-interval analyses of disposition, prevalence of AEs, and of markedly abnormal and predefined changes in laboratory values, vital signs, and ECGs, the following interval windows were used:
# Adverse events that were already present prior to the first dose of cilansetron study medication but increased in severity afterwards were considered as treatment-emergent.
# The 5% cutoff point was based on the incidence within higher level terms.
# Subjects were counted at most once for each primary system organ class and preferred term. Serious AEs that resolved prior to receiving study medication or occurred more than 30 days after the last dose of study medication were not included in the incidence tables. A listing of all SAEs is presented; SAEs with onset prior to receiving study medication or more than 30 days after discontinuation of study medication were flagged. The listing presents lower level term and preferred term of the SAE, severity, action taken, outcome, and relationship of the SAE, start and stop date of the SAE, study day of onset of the SAE, age, race, and sex.
compound,measurement,setting,value
"Cc1nccn1C[C@H]1CCc2c(c3cccc4c3n2CCC4)C1=O [cilansetron, (R)-(−)-4,5,6,8,9,10-hexahydro-10-[(2-methyl-1H-imidazol-1-yl)methyl]-11H-pyrido-[3,2,1-jk]-carbazol-11-one]",Neurosis NOS,PT,5 (<1%) n (%)
same,Nightmare,PT,2 (<1%) n (%)
same,Nocturia,PT,1 (<1%) n (%)
same,Oedema Peripheral,PT,1 (<1%) n (%)
same,Oligomenorrhoea NOS*,PT,2 (<1%) n (%)
same,Onychoschizia,PT,1 (<1%) n (%)
same,Osteoarthritis Aggravated,PT,1 (<1%) n (%)
same,Osteochondrosis,PT,1 (<1%) n (%)
same,Osteoporosis NOS,PT,4 (<1%) n (%)
same,Ovarian Cyst*,PT,2 (<1%) n (%)
same,Overweight,PT,1 (<1%) n (%)
same,Pain NOS,PT,5 (<1%) n (%)
same,Pain in Limb,PT,11 (<1%) n (%)
same,Palpitations,PT,5 (<1%) n (%)
same,Panic Disorder NOS,PT,4 (<1%) n (%)
same,Peripheral Swelling,PT,3 (<1%) n (%)
same,Pharyngitis,PT,27 (2%) n (%)
same,Pharyngolaryngeal Pain,PT,2 (<1%) n (%)
same,Photodermatosis,PT,1 (<1%) n (%)
same,Polyarthritis,PT,1 (<1%) n (%)
same,Polymenorrhoea*,PT,1 (<1%) n (%)
same,Polymyalgia,PT,1 (<1%) n (%)
same,Polyuria,PT,2 (<1%) n (%)
same,Post Procedural Haemorrhage,PT,1 (<1%) n (%)
same,Post Procedural Pain,PT,4 (<1%) n (%)
same,Postmenopausal Haemorrhage*,PT,1 (<1%) n (%)
same,Postmenopausal Symptoms*,PT,1 (<1%) n (%)
same,Productive Cough,PT,1 (<1%) n (%)
same,Prostatic Pain*,PT,1 (<1%) n (%)
same,Prostatitis*,PT,3 (<1%) n (%)
same,Proteinuria,PT,2 (<1%) n (%)
same,Pruritus Generalised,PT,2 (<1%) n (%)
same,Pruritus NOS,PT,11 (<1%) n (%)
same,Psoriasis,PT,5 (<1%) n (%)
same,Pyoderma,PT,1 (<1%) n (%)
same,Pyrexia,PT,20 (1%) n (%)
same,Radius Fracture,PT,2 (<1%) n (%)
same,Rash Generalised,PT,3 (<1%) n (%)
same,Rash NOS,PT,10 (<1%) n (%)
same,Rash Papular,PT,1 (<1%) n (%)
same,Rash Pruritic,PT,1 (<1%) n (%)
same,Renal Colic,PT,4 (<1%) n (%)
same,Renal Cyst NOS,PT,1 (<1%) n (%)
same,Respiratory Disorder NOS,PT,1 (<1%) n (%)
same,Restlessness,PT,1 (<1%) n (%)
same,Rheumatoid Arthritis,PT,1 (<1%) n (%)
same,Rheumatoid Arthritis Aggravated,PT,1 (<1%) n (%)
same,Rhinitis Allergic NOS,PT,4 (<1%) n (%)
same,Rhinitis NOS,PT,4 (<1%) n (%)
same,Rhinorrhoea,PT,2 (<1%) n (%)
same,Rib Fracture,PT,2 (<1%) n (%)
same,Road Traffic Accident,PT,1 (<1%) n (%)
same,Rosacea,PT,1 (<1%) n (%)
same,Scar,PT,1 (<1%) n (%)
same,Scleroderma,PT,1 (<1%) n (%)
same,Seborrhoea,PT,1 (<1%) n (%)
same,Sensation of Foreign Body NOS,PT,1 (<1%) n (%)
same,Sinus Arrhythmia,PT,2 (<1%) n (%)
same,Sinus Bradycardia,PT,3 (<1%) n (%)
same,Sinus Congestion,PT,1 (<1%) n (%)
same,Sinus Tachycardia,PT,9 (<1%) n (%)
same,Skin Disorder NOS,PT,1 (<1%) n (%)
same,Skin Eruption,PT,1 (<1%) n (%)
same,Skin Inflammation NOS,PT,1 (<1%) n (%)
same,Skin Necrosis,PT,1 (<1%) n (%)
same,Skin Odour Abnormal,PT,1 (<1%) n (%)
same,Skin Ulcer,PT,1 (<1%) n (%)
same,Sleep Disorder NOS,PT,2 (<1%) n (%)
same,Sneezing,PT,2 (<1%) n (%)
same,Snoring,PT,1 (<1%) n (%)
same,Soft Tissue Injury NOS,PT,1 (<1%) n (%)
same,Solar Keratosis,PT,1 (<1%) n (%)
same,Spinal Osteoarthritis,PT,1 (<1%) n (%)
same,Spondylosis,PT,2 (<1%) n (%)
same,Sputum Discoloured,PT,1 (<1%) n (%)
same,Stress Incontinence,PT,2 (<1%) n (%)
same,Stress Symptoms,PT,8 (<1%) n (%)
same,Supraventricular Extrasystoles,PT,1 (<1%) n (%)
same,Sweating Increased,PT,7 (<1%) n (%)
same,Tachycardia NOS,PT,3 (<1%) n (%)
same,Tachycardia Paroxysmal NOS,PT,1 (<1%) n (%)
same,Tendon Injury,PT,1 (<1%) n (%)
same,Tendonitis,PT,3 (<1%) n (%)
same,Thermal Burn,PT,1 (<1%) n (%)
same,Thirst,PT,1 (<1%) n (%)
same,Toe Deformities NOS,PT,1 (<1%) n (%)
same,Tonsillar Hypertrophy,PT,1 (<1%) n (%)
same,Traumatic Chest Injury NOS,PT,1 (<1%) n (%)
same,Upper Respiratory Tract Inflammation,PT,1 (<1%) n (%)
same,Urethral Stricture,PT,1 (<1%) n (%)
same,Urinary Frequency,PT,5 (<1%) n (%)
same,Urinary Incontinence,PT,4 (<1%) n (%)
same,Urinary Incontinence Aggravated,PT,1 (<1%) n (%)
same,Urine Odour Abnormal,PT,1 (<1%) n (%)
same,Urticaria NOS,PT,4 (<1%) n (%)
same,Uterine Cervical Erosion*,PT,1 (<1%) n (%)
same,Uterine Prolapse*,PT,1 (<1%) n (%)
same,Vaginal Prolapse*,PT,1 (<1%) n (%)
same,Ventricular Extrasystoles,PT,3 (<1%) n (%)
same,Ventricular Hypertrophy,PT,1 (<1%) n (%)
same,Vitamin B12 Deficiency,PT,2 (<1%) n (%)
same,Weakness,PT,14 (<1%) n (%)
same,Weight Fluctuation,PT,1 (<1%) n (%)
same,Wheezing,PT,1 (<1%) n (%)
same,Wrist Fracture,PT,2 (<1%) n (%)
same,Cardiac Disorders,SOC,46 (3%) n (%)
same,General Disorders and Administration Site Conditions,SOC,85 (6%) n (%)
same,"Injury, Poisoning and Procedural Complications",SOC,59 (4%) n (%)
same,Metabolism and Nutrition Disorders,SOC,54 (4%) n (%)
same,Psychiatric Disorders,SOC,74 (5%) n (%)
same,Renal and Urinary Disorders,SOC,40 (3%) n (%)
same,Reproductive System and Breast Disorders,SOC,38 (3%) n (%)
same,"Respiratory, Thoracic and Mediastinal Disorders",SOC,91 (6%) n (%)
same,Skin and Subcutaneous Tissue Disorders,SOC,70 (5%) n (%)
